Source: ChEMBL document CHEMBL1800013, “Small molecule inhibitors of SHP2 tyrosine phosphatase discovered by virtual screening” (Bioorg Med Chem Lett, 2011)
Calls of active or inactive are those of the source. No cut-off for these calls is given here.

Legend:
[1] = target: T1, Tyrosine-protein phosphatase non-receptor type 1 (Homo sapiens, UniProt P18031); experiment: Inhibition of PTP1B
T1 sequence (P18031 whole entry): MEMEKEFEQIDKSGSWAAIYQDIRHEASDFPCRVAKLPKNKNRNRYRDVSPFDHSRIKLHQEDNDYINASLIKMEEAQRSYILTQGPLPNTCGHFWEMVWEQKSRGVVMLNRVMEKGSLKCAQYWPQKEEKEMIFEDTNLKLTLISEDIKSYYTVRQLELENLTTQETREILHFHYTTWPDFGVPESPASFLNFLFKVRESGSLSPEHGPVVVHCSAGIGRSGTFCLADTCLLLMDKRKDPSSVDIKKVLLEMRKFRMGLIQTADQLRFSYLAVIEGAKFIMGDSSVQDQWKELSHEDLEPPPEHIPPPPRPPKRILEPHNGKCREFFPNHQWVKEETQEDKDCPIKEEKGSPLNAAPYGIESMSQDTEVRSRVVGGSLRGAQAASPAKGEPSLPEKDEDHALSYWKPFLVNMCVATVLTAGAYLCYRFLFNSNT

[2] = target: T2, Dual specificity protein phosphatase 22 (Homo sapiens, UniProt Q9NRW4); experiment: Inhibition of VHX
T2 sequence (Q9NRW4 whole entry): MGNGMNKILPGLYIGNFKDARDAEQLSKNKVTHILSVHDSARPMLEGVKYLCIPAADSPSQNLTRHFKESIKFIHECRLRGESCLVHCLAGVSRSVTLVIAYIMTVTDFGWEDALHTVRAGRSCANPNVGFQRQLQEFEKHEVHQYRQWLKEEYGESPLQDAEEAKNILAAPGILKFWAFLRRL

[3] = Inhibition of Cdc14 at 100 uM
[4] = target: T3, Tyrosine-protein phosphatase non-receptor type 2 (Homo sapiens, UniProt P17706); experiment: Inhibition of TC-PTP
T3 sequence (P17706 whole entry): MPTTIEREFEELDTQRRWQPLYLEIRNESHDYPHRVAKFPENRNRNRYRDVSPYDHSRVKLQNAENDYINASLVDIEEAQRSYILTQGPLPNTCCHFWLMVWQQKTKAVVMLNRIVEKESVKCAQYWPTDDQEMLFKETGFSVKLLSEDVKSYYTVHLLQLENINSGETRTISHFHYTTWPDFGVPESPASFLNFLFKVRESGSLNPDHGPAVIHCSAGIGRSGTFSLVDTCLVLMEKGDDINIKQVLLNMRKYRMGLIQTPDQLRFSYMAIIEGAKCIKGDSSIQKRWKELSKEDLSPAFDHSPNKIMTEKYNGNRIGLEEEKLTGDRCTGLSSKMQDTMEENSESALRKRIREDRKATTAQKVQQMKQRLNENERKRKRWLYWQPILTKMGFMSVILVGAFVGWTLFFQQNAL

[5] = target: Dual specificity protein phosphatase 3 (Homo sapiens) (UniProt P51452); experiment: Inhibition of VHR at 100 uM
[6] = target: Tyrosine-protein phosphatase non-receptor type 6 (Homo sapiens, UniProt P29350); experiment: Inhibition of SHP1
[7] = target: T4, Tyrosine-protein phosphatase non-receptor type 11 (Homo sapiens) (UniProt Q06124); experiment: Inhibition of SHP2 catalytic domain assessed as inhibition of pNPP to p-nitrophenol conversion at 50 uM after 5 mins by spectrophotometry
T4 sequence (whole entry): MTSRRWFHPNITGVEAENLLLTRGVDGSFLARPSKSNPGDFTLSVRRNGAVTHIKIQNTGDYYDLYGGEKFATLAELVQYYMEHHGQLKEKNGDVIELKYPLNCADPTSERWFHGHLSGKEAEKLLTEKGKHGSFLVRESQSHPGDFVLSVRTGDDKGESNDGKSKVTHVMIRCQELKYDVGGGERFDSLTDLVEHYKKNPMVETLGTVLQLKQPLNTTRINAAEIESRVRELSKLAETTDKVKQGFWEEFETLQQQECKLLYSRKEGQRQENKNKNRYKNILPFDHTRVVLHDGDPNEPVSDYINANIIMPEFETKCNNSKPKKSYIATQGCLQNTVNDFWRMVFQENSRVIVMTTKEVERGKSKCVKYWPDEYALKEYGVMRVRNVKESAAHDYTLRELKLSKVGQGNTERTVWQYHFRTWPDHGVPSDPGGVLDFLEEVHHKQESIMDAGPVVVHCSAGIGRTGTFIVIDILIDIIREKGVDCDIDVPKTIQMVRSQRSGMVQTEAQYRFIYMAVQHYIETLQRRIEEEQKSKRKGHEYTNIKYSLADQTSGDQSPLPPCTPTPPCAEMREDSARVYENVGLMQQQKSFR

Sequence of Dual specificity protein phosphatase 3 (Homo sapiens) (P51452 whole entry, looked up): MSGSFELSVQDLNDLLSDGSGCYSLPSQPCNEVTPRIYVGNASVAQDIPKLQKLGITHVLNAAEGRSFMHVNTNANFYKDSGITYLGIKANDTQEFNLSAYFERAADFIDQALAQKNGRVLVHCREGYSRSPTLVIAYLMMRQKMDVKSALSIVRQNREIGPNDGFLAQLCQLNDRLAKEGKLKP
Sequence of Tyrosine-protein phosphatase non-receptor type 6 (P29350 whole entry, the tested form may be a part): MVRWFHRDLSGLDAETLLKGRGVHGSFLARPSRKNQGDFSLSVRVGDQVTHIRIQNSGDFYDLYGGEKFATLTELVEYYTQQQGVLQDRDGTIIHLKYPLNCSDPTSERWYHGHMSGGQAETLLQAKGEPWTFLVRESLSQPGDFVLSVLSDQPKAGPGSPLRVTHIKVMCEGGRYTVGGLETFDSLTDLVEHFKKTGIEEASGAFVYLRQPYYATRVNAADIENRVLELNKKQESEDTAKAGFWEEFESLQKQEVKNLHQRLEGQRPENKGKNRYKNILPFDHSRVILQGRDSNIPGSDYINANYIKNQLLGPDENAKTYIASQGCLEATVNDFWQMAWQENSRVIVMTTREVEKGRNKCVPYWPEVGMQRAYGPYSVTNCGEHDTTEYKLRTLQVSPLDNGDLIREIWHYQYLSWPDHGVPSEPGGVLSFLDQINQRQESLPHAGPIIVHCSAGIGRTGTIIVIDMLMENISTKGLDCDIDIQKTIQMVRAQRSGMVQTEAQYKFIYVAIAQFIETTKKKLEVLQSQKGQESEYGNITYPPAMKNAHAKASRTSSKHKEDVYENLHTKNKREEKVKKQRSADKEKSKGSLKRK

**Q.** Which IC50 [1] does the source give for `Cc1cc(S(=O)(=O)O)c(S(=O)(=O)O)cc1N1N=C(C(=O)O)CC1=O` here?
**A.** Its IC50 is 118 µM.

**Q.** What about the IC50 [2] of the same molecule?
**A.** The IC50 was over 100 µM.

**Q.** What about the inhibition [3] of the same molecule?
**A.** The inhibition was “inactive”.

**Q.** And the IC50 [4]?
**A.** The IC50 was over 100 µM.

**Q.** And the inhibition [5]?
**A.** The inhibition was “inactive”.

**Q.** And the IC50 [6]?
**A.** The IC50 was 14 µM.

**Q.** And the inhibition [7]?
**A.** Its inhibition is 91%.
